Test results taken from patent US20260232767A1, “INTERLEUKIN-23 RECEPTOR ANTAGONIST PEPTIDES FOR USE IN THE TREATMENT OF PSORIASIS” (Janssen Pharmaceutica NV, priority 2023, published 2026).

System: subjects with moderate-to-severe plaque psoriasis
Assay: Safety, adverse events, Example 2 through Week 56
Format: in vivo, human
Source text: The LTE safety analysis was based on randomized participants in Example who entered the present long-term extension study and received at least one dose of study intervention (including a partial dose) during the study period.

[1] = 100 mg QD, Week 16 through Week 56
[2] = 100 mg QD, LTE Safety analysis set

With `CC(=O)NCCCC[C@@H]1NC(=O)[C@H](Cc2c[nH]c3c(C)cccc23)NC(=O)[C@H]([C@@H](C)O)NC(=O)[C@H](CC(N)=O)NC(=O)[C@@H](NC(C)=O)C(C)(C)SSC(C)(C)[C@@H](C(=O)N[C@@H](Cc2ccc(OCCN)cc2)C(=O)N[C@@H](Cc2ccc3ccccc3c2)C(=O)NC2(C(=O)N[C@@H](CCC(=O)O)C(=O)N[C@@H](CC(N)=O)C(=O)N[C@@H](Cc3cccnc3)C(=O)N(C)CC(N)=O)CCOCC2)NC1=O` [IL-23 receptor antagonist peptide, Ac-[Pen]*-N-T-[W(7-Me)]-[Lys(Ac)]-[Pen]*-Phe[4-(2-aminoethoxy)]-[2-Nal]-[THP]-E-N-[3-Pal]-Sarc-NH2 (*[Pen]-[Pen]* formdisulfidebond)] the “Rhinorrhoea: % of subjects” value (100 mg BID, through Week 56) was “(2.4%)”, the “Rhinorrhoea: number of subjects” value (100 mg BID, through Week 56) was 1 and the “Seasonal allergy: % of subjects” value (100 mg BID, through Week 56) was “(2.4%)”. The “Seasonal allergy: number of subjects” value (100 mg BID, through Week 56) was 1, the “Skin and subcutaneous tissue disorders: % of subjects” value (100 mg BID, through Week 56) was “(7.1%)” and the “Skin and subcutaneous tissue disorders: number of subjects” value (100 mg BID, through Week 56) was 3. For the same molecule, the “Skin laceration: number of subjects” value (100 mg BID, through Week 56) was 0, the “Skin papilloma: % of subjects” value (100 mg BID, through Week 56) was “(2.4%)” and the “Skin papilloma: number of subjects” value (100 mg BID, through Week 56) was 1. The “Social circumstances: number of subjects” value (100 mg BID, through Week 56) was 0, the “Steatohepatitis: number of subjects” value (100 mg BID, through Week 56) was 0 and the “Subjects with AE leading to discontinuation: Abdominal pain” value (100 mg BID, through Week 56) was 0. The “Subjects with AE leading to discontinuation: Alanine aminotransferase increased” value (100 mg BID, through Week 56) was 0, the “Subjects with AE leading to discontinuation: Aspartate aminotransferase increased” value (100 mg BID, through Week 56) was 0 and the “Subjects with AE leading to discontinuation: Asthenia” value (100 mg BID, through Week 56) was 0. The “Subjects with AE leading to discontinuation: Chills” value (100 mg BID, through Week 56) was 0, the “Subjects with AE leading to discontinuation: Ear and labyrinth disorders” value (100 mg BID, through Week 56) was 0 and the “Subjects with AE leading to discontinuation: Gamma-glutamyltransferase increased” value (100 mg BID, through Week 56) was 0. For the same molecule, the “Subjects with AE leading to discontinuation: General disorders and administration site conditions” value (100 mg BID, through Week 56) was 0, the “Subjects with AE leading to discontinuation: Headache” value (100 mg BID, through Week 56) was 0 and the “Subjects with AE leading to discontinuation: Insomnia” value (100 mg BID, through Week 56) was 0. For the same molecule, the “Subjects with AE leading to discontinuation: Investigations” value (100 mg BID, through Week 56) was 0, the “Subjects with AE leading to discontinuation: Nausea” value (100 mg BID, through Week 56) was 0 and the “Subjects with AE leading to discontinuation: Nervous system disorders” value (100 mg BID, through Week 56) was 0. The “Subjects with AE leading to discontinuation: Proctalgia” value (100 mg BID, through Week 56) was 0, the “Subjects with AE leading to discontinuation: Psoriasis” value (100 mg BID, through Week 56) was 0 and the “Subjects with AE leading to discontinuation: Psychiatric disorders” value (100 mg BID, through Week 56) was 0. For the same molecule, the “Subjects with AE leading to discontinuation: Skin and subcutaneous tissue disorders” value (100 mg BID, through Week 56) was 0, the “Subjects with AE leading to discontinuation: Suicide attempt” value (100 mg BID, through Week 56) was 0 and the “Subjects with AE leading to discontinuation: Transaminases increased” value (100 mg BID, through Week 56) was 0. For the same molecule, the “Subjects with AE leading to discontinuation: Vertigo” value (100 mg BID, through Week 56) was 0, the “Subjects with AE leading to discontinuation: Vomiting” value (100 mg BID, through Week 56) was 0 and the “Subjects with AE leading to discontinuation: Weight increased” value (100 mg BID, through Week 56) was 0. For the same molecule, the “Subjects with treatment-emergent AE: Bronchitis” value (100 mg BID, through Week 56) was 0, the “Subjects with treatment-emergent AE: Gastrointestinal disorders” value (100 mg BID, through Week 56) was 7 and the “Subjects with treatment-emergent AE: Nasopharyngitis” value (100 mg BID, through Week 56) was 5. For the same molecule, the “Subjects with treatment-emergent serious AE: COVID-19” value (100 mg BID, through Week 56) was 0, the “Subjects with treatment-emergent serious AE: Cardiac disorders” value (100 mg BID, through Week 56) was 0 and the “Subjects with treatment-emergent serious AE: Cerebrovascular accident” value (100 mg BID, through Week 56) was 0. The “Subjects with treatment-emergent serious AE: Coronary artery disease” value (100 mg BID, through Week 56) was 0, the “Subjects with treatment-emergent serious AE: Diverticulitis” value (100 mg BID, through Week 56) was 0 and the “Subjects with treatment-emergent serious AE: Foot deformity” value (100 mg BID, through Week 56) was 0. The “Subjects with treatment-emergent serious AE: General disorders and administration site conditions” value (100 mg BID, through Week 56) was 0, the “Subjects with treatment-emergent serious AE: Infected cyst” value (100 mg BID, through Week 56) was 0 and the “Subjects with treatment-emergent serious AE: Infections and infestations” value (100 mg BID, through Week 56) was 0. For the same molecule, the “Subjects with treatment-emergent serious AE: Injury, poisoning and procedural complications” value (100 mg BID, through Week 56) was 0, the “Subjects with treatment-emergent serious AE: Intervertebral disc protrusion” value (100 mg BID, through Week 56) was 0 and the “Subjects with treatment-emergent serious AE: Ligament injury” value (100 mg BID, through Week 56) was 0. For the same molecule, the “Subjects with treatment-emergent serious AE: Musculoskeletal and connective tissue disorders” value (100 mg BID, through Week 56) was 0, the “Subjects with treatment-emergent serious AE: Nervous system disorders” value (100 mg BID, through Week 56) was 0 and the “Subjects with treatment-emergent serious AE: Non-cardiac chest pain” value (100 mg BID, through Week 56) was 0. For the same molecule, the “Subjects with treatment-emergent serious AE: Psychiatric disorders” value (100 mg BID, through Week 56) was 0, the “Subjects with treatment-emergent serious AE: Respiratory, thoracic and mediastinal disorders” value (100 mg BID, through Week 56) was 0 and the “Subjects with treatment-emergent serious AE: Suicide attempt” value (100 mg BID, through Week 56) was 0. For the same molecule, the “Subjects with treatment-emergent serious AE: Tonsillar hypertrophy” value (100 mg BID, through Week 56) was 0, the “Subjects with treatment-emergent serious AE: Ventricular dysfunction” value (100 mg BID, through Week 56) was 0 and the “Suicide attempt: number of subjects” value (100 mg BID, through Week 56) was 0. For the same molecule, the “Sunburn: number of subjects” value (100 mg BID, through Week 56) was 0, the “Thrombocytopenia: number of subjects” value (100 mg BID, through Week 56) was 0 and the “Thrombocytosis: % of subjects” value (100 mg BID, through Week 56) was “(2.4%)”. The “Thrombocytosis: number of subjects” value (100 mg BID, through Week 56) was 1, the “Tonsillar hypertrophy: number of subjects” value (100 mg BID, through Week 56) was 0 and the “Tooth fracture: % of subjects” value (100 mg BID, through Week 56) was “(2.4%)”. The “Tooth fracture: number of subjects” value (100 mg BID, through Week 56) was 1, the “Type 2 diabetes mellitus: % of subjects” value (100 mg BID, through Week 56) was “(2.4%)” and the “Type 2 diabetes mellitus: number of subjects” value (100 mg BID, through Week 56) was 1. For the same molecule, the “Urinary tract disorder: % of subjects” value (100 mg BID, through Week 56) was “(2.4%)”, the “Urinary tract disorder: number of subjects” value (100 mg BID, through Week 56) was 1 and the “Uterine leiomyoma: % of subjects” value (100 mg BID, through Week 56) was “(2.4%)”. The “Uterine leiomyoma: number of subjects” value (100 mg BID, through Week 56) was 1, the “Vascular disorders: % of subjects” value (100 mg BID, through Week 56) was “(4.8%)” and the “Vascular disorders: number of subjects” value (100 mg BID, through Week 56) was 2. For the same molecule, the “Ventricular dysfunction: number of subjects” value (100 mg BID, through Week 56) was 0, the “Vertigo: number of subjects” value (100 mg BID, through Week 56) was 0 and the “Vitamin D deficiency: number of subjects” value (100 mg BID, through Week 56) was 0. For the same molecule, the “Number of subjects with treatment-emergent AE: Cholelithiasis” value [1] was 1, the “Number of subjects with treatment-emergent AE: Ear and labyrinth disorders” value [1] was 1 and the “Number of subjects with treatment-emergent AE: Endocrine disorders” value [1] was 0. For the same molecule, the “Number of subjects with treatment-emergent AE: Eye disorders” value [1] was 0, the “Number of subjects with treatment-emergent AE: Eyelid skin dryness” value [1] was 0 and the “Number of subjects with treatment-emergent AE: Goiter” value [1] was 0. For the same molecule, the “Number of subjects with treatment-emergent AE: Hepatobiliary disorders” value [1] was 1, the “Number of subjects with treatment-emergent AE: Hypertransaminasemia” value [1] was 0 and the “Number of subjects with treatment-emergent AE: Immune system disorders” value [1] was 0. The “Number of subjects with treatment-emergent AE: Insomnia” value [1] was 0, the “Number of subjects with treatment-emergent AE: Ocular cyst” value [1] was 0 and the “Number of subjects with treatment-emergent AE: Psychiatric disorders” value [1] was 0. For the same molecule, the “Number of subjects with treatment-emergent AE: Retinal vein occlusion” value [1] was 0, the “Number of subjects with treatment-emergent AE: Seasonal allergy” value [1] was 0 and the “Number of subjects with treatment-emergent AE: Vertigo” value [1] was 1. The “Subjects with treatment-emergent AE: Cholelithiasis (%)” value [1] was “(2.5%)”, the “Subjects with treatment-emergent AE: Ear and labyrinth disorders (%)” value [1] was “(2.5%)” and the “Subjects with treatment-emergent AE: Hepatobiliary disorders (%)” value [1] was “(2.5%)”. The “Subjects with treatment-emergent AE: Vertigo (%)” value [1] was “(2.5%)”, the “Subjects with adverse event: Alanine aminotransferase increased” value [2] was 0 and the “Subjects with adverse event: Aspartate aminotransferase increased” value [2] was 0. The “Subjects with adverse event: Bronchitis” value [2] was 0, the “Subjects with adverse event: Meniscus injury” value [2] was 0 and the “Subjects with adverse event: Sinusitis” value [2] was 0. For the same molecule, the “Subjects with adverse event: Urinary tract infection” value [2] was 0, the “Subjects with serious adverse event: Cerebrovascular accident” value [2] was 0 and the “Subjects with serious adverse event: Coronary artery disease” value [2] was 0. The “Subjects with serious adverse event: Foot deformity” value [2] was 0, the “Subjects with serious adverse event: Ligament injury” value [2] was 0 and the “Subjects with serious adverse event: Non-cardiac chest pain” value [2] was 0. The “Subjects with serious adverse event: Tonsillar hypertrophy” value [2] was 0, the “Subjects with serious adverse event: Uterine leiomyoma” value [2] was 0 and the “Subjects with serious adverse event: Ventricular dysfunction” value [2] was 0. For the same molecule, the “Subjects with AE leading to discontinuation: Alanine aminotransferase increased” value (100 mg QD, Week 16-56) was 0, the “Subjects with AE leading to discontinuation: Aspartate aminotransferase increased” value (100 mg QD, Week 16-56) was 0 and the “Subjects with AE leading to discontinuation: Asthenia” value (100 mg QD, Week 16-56) was 0. For the same molecule, the “Subjects with AE leading to discontinuation: Gamma-glutamyltransferase increased” value (100 mg QD, Week 16-56) was 0, the “Subjects with AE leading to discontinuation: Insomnia” value (100 mg QD, Week 16-56) was 0 and the “Subjects with AE leading to discontinuation: Investigations” value (100 mg QD, Week 16-56) was 0. For the same molecule, the “Subjects with AE leading to discontinuation: Proctalgia” value (100 mg QD, Week 16-56) was 0, the “Subjects with AE leading to discontinuation: Psoriasis” value (100 mg QD, Week 16-56) was 0 and the “Subjects with AE leading to discontinuation: Psychiatric disorders” value (100 mg QD, Week 16-56) was 0. For the same molecule, the “Subjects with AE leading to discontinuation: Skin and subcutaneous tissue disorders” value (100 mg QD, Week 16-56) was 0, the “Subjects with COVID-19 associated AE of interest: SARS-CoV-2 test positive” value (100 mg QD, Week 16-56) was 0 and the “Subjects with treatment-emergent AE: Alanine aminotransferase increased” value (100 mg QD, Week 16-56) was 0. The “Subjects with treatment-emergent AE: Aspartate aminotransferase increased” value (100 mg QD, Week 16-56) was 0.
